Measurements published in patent US20170008888A1 (KYORIN PHARMACEUTICAL CO., LTD., priority 2014, published 2017).

Columns and labels:
AurB or AurC = experiment: Probe-based (AX9989) kinase profiling in Jurkat lysate: AurB or AurC; assay type: binding
In short: (§1)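 Compounds were pre-incubated for 15 min at room temperature with gel-filtered Jurkat cell lysate supplemented with 20 mM MnCl2, after which the acyl phosphate ATP probe AX9989 was added at 5 μM final. Labeled active-site peptides were enriched after tryptic digestion and measured by LC/MS, with percent inhibition taken relative to samples without compound.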

human PBMCs = experiment: Human PBMC TNF-α response to endotoxin (ELISA); assay type: cell-based; settings: 0.1 μg/ml LPS 16 h, read-out: EC50 for the inhibition of the human PBMC TNF-α response to endotoxin, ave. ± S.D.
In short: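 PBMCs at 2e6 cells/ml in RPMI 1640 with 10% charcoal-dextran-treated FBS were pre-treated 1 h at 37 °C with compound (4-point 1:5 dilution from 10 μM). Stimulation with 0.1 μg/ml E. coli 0111:B4 LPS for 16 h; TNF-α measured by ELISA (A450) in 25-fold diluted supernatant.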

[1] = biological target: T1, BRD4 bromodomain domain I [BRD4(1)] (Homo sapiens, UniProt O60885); experiment: BRD4 bromodomain domain 1 inhibition assay (TR-FRET); assay type: binding; settings: screening concentration 10 μM
T1 construct: BRD4 bromodomain domain I [BRD4(1)]; purchased Cayman Chemicals
In short: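 0.5% DMSO, in triplicate, using Cayman BRD4(1) TR-FRET protocol with slight modification. 670/620 nm ratio normalized to 10 μM JQ1, with DMSO control set as 0% inhibition.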

ACK = biological target: T2, ACK (Homo sapiens, UniProt Q07912); experiment: Probe-based (AX9989) kinase profiling in Jurkat lysate: ACK; assay type: binding; settings: read-out: Kinase inhibition % at indicated screening concentration: ACK; for inhibition at 1 µM: screening concentration 1.0 μM; for inhibition at 0.1 µM: screening concentration 0.1 μM
T2 construct: screened for activity against several kinases in Jurkat cells; endogenous in cells; host or cells: Jurkat cell lysate
T2 sequence (Q07912 whole entry): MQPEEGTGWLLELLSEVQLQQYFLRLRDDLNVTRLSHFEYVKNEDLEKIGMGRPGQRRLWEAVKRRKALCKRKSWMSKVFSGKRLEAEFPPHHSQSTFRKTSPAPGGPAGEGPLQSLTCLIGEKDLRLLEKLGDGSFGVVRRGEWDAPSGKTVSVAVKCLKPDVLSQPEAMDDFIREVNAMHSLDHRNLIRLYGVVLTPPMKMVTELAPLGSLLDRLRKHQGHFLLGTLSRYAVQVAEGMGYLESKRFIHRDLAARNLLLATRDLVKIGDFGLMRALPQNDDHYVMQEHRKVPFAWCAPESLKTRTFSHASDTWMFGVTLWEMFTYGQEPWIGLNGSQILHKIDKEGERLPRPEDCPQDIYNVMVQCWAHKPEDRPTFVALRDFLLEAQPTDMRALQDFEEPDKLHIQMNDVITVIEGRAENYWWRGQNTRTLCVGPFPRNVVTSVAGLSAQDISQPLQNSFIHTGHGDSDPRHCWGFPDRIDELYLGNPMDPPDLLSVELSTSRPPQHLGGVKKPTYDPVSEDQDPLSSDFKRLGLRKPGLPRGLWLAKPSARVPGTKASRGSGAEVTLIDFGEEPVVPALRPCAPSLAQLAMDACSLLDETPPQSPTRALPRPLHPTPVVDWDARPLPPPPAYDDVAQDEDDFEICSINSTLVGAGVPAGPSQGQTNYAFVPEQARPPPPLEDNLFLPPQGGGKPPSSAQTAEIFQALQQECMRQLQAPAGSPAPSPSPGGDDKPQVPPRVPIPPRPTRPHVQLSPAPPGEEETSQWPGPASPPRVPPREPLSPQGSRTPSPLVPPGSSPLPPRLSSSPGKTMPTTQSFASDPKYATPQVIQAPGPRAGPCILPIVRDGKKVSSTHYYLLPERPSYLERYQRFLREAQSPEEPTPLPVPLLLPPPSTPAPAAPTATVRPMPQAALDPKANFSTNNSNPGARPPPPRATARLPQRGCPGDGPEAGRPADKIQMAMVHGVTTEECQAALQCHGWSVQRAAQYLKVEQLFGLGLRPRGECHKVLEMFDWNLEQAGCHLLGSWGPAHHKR
In short: as §1

| SMILES | Kinase inhibition % at indicated screening concentration: AurB or AurC (AurB or AurC; screening concentration 1.0 μM) | inhibition at 10 µM [1] [%] | inhibition at 1 µM (ACK) [%] | Kinase inhibition % at indicated screening concentration: AurB or AurC (AurB or AurC; screening concentration 0.1 μM) | inhibition at 0.1 µM (ACK) [%] | EC50 (human PBMCs) [nM] |
| --- | --- | --- | --- | --- | --- | --- |
| CCOc1cc(C(=O)N2CC(N3CCCCC3)C2)ccc1Nc1cc2c(cn1)N(C)C(=O)c1ccccc1N2C [Compound 114] | – | > 85 | – | E (E is ≦35%) | ≤ 35 | 530 |
| Cc1cc(CN2CC[C@@H](N3CCCC3)C2)ccc1Nc1cc2c(cn1)N(C)C(=O)c1ccccc1N2C [Compound 49] | – | > 85 | – | E (E is ≦35%) | ≤ 35 | 1510 |
| COc1cc(NS(C)(=O)=O)ccc1Nc1cc2c(cn1)N(C)C(=O)c1ccccc1N2C [Compound 73] | E (E is ≦35%) | < 70 | ≤ 35 | – | – | 1840 |
| CN1C(=O)c2occc2N(C)c2cc(N[C@H]3CC[C@H](N)CC3)ncc21 [Compound 53] | E (E is ≦35%) | 70 to 85 | ≤ 35 | – | – | 4130 |
| CCOc1cc(C(=O)N2CCC(CN3CCOCC3)CC2)ccc1Nc1cc2c(cn1)N(C)C(=O)c1ccccc1N2C [Compound 120] | E (E is ≦35%) | > 85 | ≤ 35 | – | – | 860 |
| CN1C(=O)c2ccccc2N(C)c2cc(NC3CCC(C(=O)NC4CCOCC4)CC3)ncc21 (centres unmarked) [Compound 64] | E (E is ≦35%) | < 70 | ≤ 35 | – | – | 3170 |
| COc1cc(C(=O)N2CCC(N(C)C)C2)ccc1Nc1cc2c(cn1)N(C)C(=O)c1ccccc1N2C (centres unmarked) [Compound 70] | – | 70 to 85 | – | E (E is ≦35%) | ≤ 35 | 2100 |
| CCOc1cc(C(=O)N2CCC(N3CCN(C)CC3)CC2)ccc1Nc1cc2c(cn1)N(C)C(=O)c1ccccc1N2C [Compound 61] | E (E is ≦35%) | > 85 | ≤ 35 | – | – | 890 ± 290 |

The next lines start with results.

| Kinase inhibition % at indicated screening concentration: AurB or AurC (AurB or AurC; screening concentration 1.0 μM) | inhibition at 10 µM [1] [%] | inhibition at 1 µM (ACK) [%] | Kinase inhibition % at indicated screening concentration: AurB or AurC (AurB or AurC; screening concentration 0.1 μM) | inhibition at 0.1 µM (ACK) [%] | SMILES | EC50 (human PBMCs) [nM] |
| --- | --- | --- | --- | --- | --- | --- |
| E (E is ≦35%) | 70 to 85 | ≤ 35 | – | – | CCOc1cc(C(=O)N2CCC(O)CC2)ccc1Nc1cc2c(cn1)N(C)C(=O)c1ccccc1N2C [Compound 52] | 820 |
| E (E is ≦35%) | 70 to 85 | ≤ 35 | – | – | CCOc1cc(C(=O)N2CCC(OC)CC2)ccc1Nc1cc2c(cn1)N(C)C(=O)c1ccccc1N2C [Compound 63] | 870 |
| E (E is ≦35%) | > 85 | ≤ 35 | – | – | CCOc1cc(C(=O)N2CCOCC2)ccc1Nc1cc2c(cn1)N(C)C(=O)c1ccccc1N2C [Compound 111] | 540 |
| E (E is ≦35%) | < 70 | ≤ 35 | – | – | CCOc1cc(C(=O)NCCO)ccc1Nc1cc2c(cn1)N(C)C(=O)c1ccccc1N2C [Compound 66] | 1330 |
| E (E is ≦35%) | < 70 | ≤ 35 | – | – | CCOc1cc(C(=O)NCC2CC2)ccc1Nc1cc2c(cn1)N(C)C(=O)c1ccccc1N2C [Compound 57] | 1080 |
| E (E is ≦35%) | 70 to 85 | ≤ 35 | – | – | CCOc1cc(C(=O)N2CCCN(C)CC2)ccc1Nc1cc2c(cn1)N(C)C(=O)c1ccccc1N2C [Compound 8] | 650 |
| – | < 70 | – | E (E is ≦35%) | ≤ 35 | CCOc1cc(C(N)=O)ccc1Nc1cc2c(cn1)N(C)C(=O)c1ccccc1N2C [Compound 51] | 2040 |
| E (E is ≦35%) | < 70 | ≤ 35 | – | – | CCOc1cc(C(=O)NCCc2ccncc2)ccc1Nc1cc2c(cn1)N(C)C(=O)c1ccccc1N2C [Compound 107] | 1310 |
| E (E is ≦35%) | > 85 | ≤ 35 | – | – | CCOc1cc(C(=O)N2CCCNCC2)ccc1Nc1cc2c(cn1)N(C)C(=O)c1ccccc1N2C [Compound 71] | 780 |
